Test results taken from article PMC12951562, “SH2scan: Mapping SH2 Domain-Ligand Binding Selectivity for Inhibitors and Degraders” (Journal of Medicinal Chemistry, 2026).
Like-named read-outs stand apart in the source and are kept apart here. Non-standard residues stand in square brackets, D forms with d. Residues, ends and D or L forms follow the SMILES beside them. pY = N[C@@H](Cc1ccc(OP(=O)(O)O)cc1)C(=O)O

What was measured:
Assay in all cases: biochemical
Format in all cases: binding
GRB14 = biological target: T1, GRB14 (Homo sapiens, UniProt Q14449); conditions: for remaining activity at 10 µM: read-out: percent of DMSO vehicle control
T1 construct: the DNA-tagged SH2 domain concentrations used in this study were <0.1 nM; made in house; host or cells: HEK293 (transient transfection; unpurified extract)
T1 sequence (Q14449 439-535 limits assumed): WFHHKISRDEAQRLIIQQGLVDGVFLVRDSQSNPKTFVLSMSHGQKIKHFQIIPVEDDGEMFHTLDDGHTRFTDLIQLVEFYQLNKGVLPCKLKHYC

PIK3R1(SH2dom.C-term.) = biological target: T2, PIK3R1(SH2dom.C-term.) (Homo sapiens, UniProt P27986); conditions: for remaining activity at 10 µM: read-out: percent of DMSO vehicle control
T2 construct: SH2dom.C-term. denotes SH2 domain closest to C-terminus of protein; made in house; host or cells: HEK293 (transient transfection, unpurified extract)
T2 sequence (P27986 624-718 limits assumed): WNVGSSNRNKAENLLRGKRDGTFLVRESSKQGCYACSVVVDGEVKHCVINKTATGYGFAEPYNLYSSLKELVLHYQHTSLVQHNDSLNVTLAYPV

PIK3R3(SH2dom.N-term.) = biological target: T3, PIK3R3(SH2dom.N-term.) (Homo sapiens, UniProt Q92569); conditions: for remaining activity at 10 µM: read-out: percent of DMSO vehicle control
T3 construct: SH2dom.N-term. denotes SH2 domain closest to N-terminus of protein; made in house; host or cells: HEK293 (transient transfection, unpurified extract)

PIK3R1(SH2dom.N-term.) = biological target: T4, PIK3R1(SH2dom.N-term.) (Homo sapiens, UniProt P27986); conditions: for remaining activity at 10 µM: read-out: percent of DMSO vehicle control
T4 construct: SH2dom.N-term. denotes SH2 domain closest to N-terminus of protein; made in house; host or cells: HEK293 (transient transfection, unpurified extract)
T4 sequence (P27986 333-428 limits assumed): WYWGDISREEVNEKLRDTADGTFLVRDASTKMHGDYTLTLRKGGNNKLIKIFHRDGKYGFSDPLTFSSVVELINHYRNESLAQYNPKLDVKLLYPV

PIK3R2(SH2dom.C-term.) = biological target: T5, PIK3R2(SH2dom.C-term.) (Homo sapiens, UniProt O00459); conditions: for KD: dose-response; for remaining activity at 10 µM: read-out: percent of DMSO vehicle control
T5 construct: SH2dom.C-term. denotes SH2 domain closest to C-terminus of protein; made in house; host or cells: HEK293 (transient transfection, unpurified extract)
T5 sequence (O00459 622-716 limits assumed): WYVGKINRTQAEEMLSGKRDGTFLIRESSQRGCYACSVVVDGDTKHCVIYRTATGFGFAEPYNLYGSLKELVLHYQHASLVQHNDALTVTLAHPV

PLCG1(SH2dom.N-term.) = biological target: T6, PLCG1(SH2dom.N-term.) (Homo sapiens, UniProt P19174); conditions: for remaining activity at 10 µM: read-out: percent of DMSO vehicle control
T6 construct: SH2dom.N-term. denotes SH2 domain closest to N-terminus of protein; made in house; host or cells: HEK293 (transient transfection, unpurified extract)
T6 sequence (P19174 550-657 limits assumed): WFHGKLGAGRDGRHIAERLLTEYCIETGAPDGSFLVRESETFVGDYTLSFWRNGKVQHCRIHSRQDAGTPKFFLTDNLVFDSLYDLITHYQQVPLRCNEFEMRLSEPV

SRC = biological target: T7, SRC (Homo sapiens, UniProt P12931); conditions: for remaining activity at 10 µM: read-out: percent of DMSO vehicle control
T7 construct: made in house; host or cells: HEK293 (transient transfection), unpurified extract
T7 sequence (P12931 whole entry): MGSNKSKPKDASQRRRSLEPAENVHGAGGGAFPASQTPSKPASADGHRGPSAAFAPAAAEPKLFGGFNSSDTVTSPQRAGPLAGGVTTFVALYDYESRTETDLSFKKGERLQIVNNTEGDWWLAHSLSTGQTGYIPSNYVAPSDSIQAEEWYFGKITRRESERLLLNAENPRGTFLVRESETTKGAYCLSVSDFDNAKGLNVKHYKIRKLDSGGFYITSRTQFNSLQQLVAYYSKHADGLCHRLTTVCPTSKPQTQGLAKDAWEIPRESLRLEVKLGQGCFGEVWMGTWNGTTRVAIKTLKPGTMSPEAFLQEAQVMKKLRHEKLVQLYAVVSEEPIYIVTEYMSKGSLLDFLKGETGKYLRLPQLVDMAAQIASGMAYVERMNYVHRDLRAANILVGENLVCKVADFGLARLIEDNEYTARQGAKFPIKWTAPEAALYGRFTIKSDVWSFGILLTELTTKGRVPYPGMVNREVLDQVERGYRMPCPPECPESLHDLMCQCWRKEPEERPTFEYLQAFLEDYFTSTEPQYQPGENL

HSH2D = biological target: T8, HSH2D (Homo sapiens, UniProt Q96JZ2)
T8 construct: the DNA-tagged SH2 domain concentrations used in this study were <0.1 nM; made in house; host or cells: HEK293 (transient transfection, unpurified extract)
T8 sequence (Q96JZ2 34-125 limits assumed): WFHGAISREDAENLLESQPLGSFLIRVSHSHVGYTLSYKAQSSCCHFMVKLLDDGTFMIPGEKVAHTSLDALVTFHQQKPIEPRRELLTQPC

SH2D1B = biological target: T9, SH2D1B (Homo sapiens, UniProt O14796); conditions: for remaining activity at 10 µM: read-out: percent of DMSO vehicle control
T9 construct: made in house; host or cells: HEK293 (transient transfection), unpurified extract
T9 sequence (O14796 1-132): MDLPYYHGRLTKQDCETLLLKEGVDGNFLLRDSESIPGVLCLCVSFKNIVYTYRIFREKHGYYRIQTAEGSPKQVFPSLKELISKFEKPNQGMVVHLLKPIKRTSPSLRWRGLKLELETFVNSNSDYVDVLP

LYN = biological target: T10, LYN (Homo sapiens, UniProt P07948); conditions: for remaining activity at 10 µM: read-out: percent of DMSO vehicle control
T10 construct: the DNA-tagged SH2 domain concentrations used in this study were <0.1 nM; made in house; host or cells: HEK293 (transient transfection, unpurified extract)
T10 sequence (P07948 129-226 limits assumed): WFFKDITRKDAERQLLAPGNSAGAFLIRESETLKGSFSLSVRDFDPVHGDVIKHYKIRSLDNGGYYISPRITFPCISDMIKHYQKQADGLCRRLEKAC

ITK = biological target: T11, ITK (Homo sapiens, UniProt Q08881); conditions: primary screen, 10 μM
T11 construct: the DNA-tagged SH2 domain concentrations used in this study were <0.1 nM; made in house; host or cells: HEK293 (transient transfection, unpurified extract)
T11 sequence (Q08881 239-338 limits assumed): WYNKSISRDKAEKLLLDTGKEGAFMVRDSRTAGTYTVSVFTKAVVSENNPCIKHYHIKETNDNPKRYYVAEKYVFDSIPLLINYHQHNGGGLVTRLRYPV

SOCS3 = biological target: T12, SOCS3 (Homo sapiens, UniProt O14543); conditions: for remaining activity at 10 µM: read-out: percent of DMSO vehicle control
T12 construct: made in house; host or cells: HEK293 (transient transfection), unpurified extract
T12 sequence (O14543 1-225): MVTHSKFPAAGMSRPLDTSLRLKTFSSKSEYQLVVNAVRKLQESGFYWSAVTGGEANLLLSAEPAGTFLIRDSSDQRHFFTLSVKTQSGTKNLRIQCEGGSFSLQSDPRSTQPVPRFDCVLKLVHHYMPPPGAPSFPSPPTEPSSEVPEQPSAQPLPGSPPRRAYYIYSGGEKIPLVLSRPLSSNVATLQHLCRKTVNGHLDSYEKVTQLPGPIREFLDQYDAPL

[1] = read-out: percent of DMSO vehicle control

Row | SMILES | KD (PIK3R2(SH2dom.C-term.)) | percent of DMSO vehicle control (ITK) | remaining activity at 10 µM (GRB14) | remaining activity at 10 µM (PIK3R1(SH2dom.C-term.)) | remaining activity at 10 µM (PIK3R3(SH2dom.N-term.)) | remaining activity at 10 µM (PIK3R1(SH2dom.N-term.)) | remaining activity at 10 µM (PIK3R2(SH2dom.C-term.)) | remaining activity at 10 µM (PLCG1(SH2dom.N-term.)) | remaining activity at 10 µM (SRC) | percent of DMSO vehicle control at 10 µM (HSH2D; [1]) | remaining activity at 10 µM (SH2D1B) | remaining activity at 10 µM (LYN) | remaining activity at 10 µM (SOCS3) | also measured
1 | O=C(CCl)Nc1cccc(CNC(=O)[C@H](Cc2ccc(OP(=O)(O)O)cc2)NC(=O)Cc2ccc(F)cc2)c1 [MN551] | No Hit | 51.4±1.1% |  |  |  |  |  |  |  |  |  |  |  | remaining activity at 10 µM (GRB14; primary screen, 10 μM): 62.1 ± 2.4%; remaining activity at 10 µM (PIK3R1(SH2dom.C-term.); primary screen, 10 μM): 52.4%; remaining activity at 10 µM (PIK3R3(SH2dom.N-term.); primary screen, 10 μM): 97.7%; remaining activity at 10 µM (PIK3R1(SH2dom.N-term.); primary screen, 10 μM): 99.8 ± 1.6%; remaining activity at 10 µM (PIK3R2(SH2dom.C-term.); primary screen, 10 μM): 30.3%; remaining activity at 10 µM (PLCG1(SH2dom.N-term.); primary screen, 10 μM): 62.8 ± 3.8%; remaining activity at 10 µM (SRC; primary screen, 10 μM): 70.2 ± 6.8%; Kd (HSH2D; dose-response, read-out: KD): 8.7 µM; remaining activity at 10 µM (HSH2D; primary screen, 10 μM, read-out: percent of DMSO vehicle control): 3 ± 0.2%; remaining activity at 10 µM (SH2D1B; primary screen, 10 μM): 63.2 ± 6.6%; remaining activity at 10 µM (LYN; primary screen, 10 μM): 161%; KD (SOCS3; dose-response): No Hit; remaining activity at 10 µM (SOCS3; primary screen, 10 μM): 24.4%
2 | CC[C@H](C)[C@H](NC(=O)[C@H](CCC(=O)O)NC(=O)[C@H](CCC(=O)O)NC(=O)[C@H](Cc1ccc(OP(=O)(O)O)cc1)NC(C)=O)C(=O)N[C@@H](CCC(=O)O)C(N)=O [Ac-pYEEIE-NH2] (Ac-[pY]EEIE-NH2) |  | 122.5% |  |  |  |  |  |  |  |  |  |  |  | percent of DMSO vehicle control (GRB14; primary screen, 10 μM): 56.1±7.2%; percent of DMSO vehicle control (PIK3R1(SH2dom.C-term.); primary screen, 10 μM): 35.8±9.3%; percent of DMSO vehicle control (PIK3R3(SH2dom.N-term.); primary screen, 10 μM): 85.7%; percent of DMSO vehicle control (PIK3R1(SH2dom.N-term.); primary screen, 10 μM): 87.7%; percent of DMSO vehicle control (PIK3R2(SH2dom.C-term.); primary screen, 10 μM): 49.5±7.1%; percent of DMSO vehicle control (PLCG1(SH2dom.N-term.); primary screen, 10 μM): 42.1%; percent of DMSO vehicle control (SRC; primary screen, 10 μM): 68.6±4.6%; percent of DMSO vehicle control (HSH2D; primary screen, 10 μM): 127.4%; percent of DMSO vehicle control (SH2D1B; primary screen, 10 μM): 47.1±1.3%; percent of DMSO vehicle control (LYN; primary screen, 10 μM): 38.1±2.4%; percent of DMSO vehicle control (SOCS3; primary screen, 10 μM): 149.7%
3 | CC(=O)N1CC[C@H]2CC[C@@H](C(=O)N[C@@H](CCC(N)=O)C(=O)NC(c3ccccc3)c3ccccc3)N2C(=O)[C@@H](NC(=O)c2cc3cc(C(F)(F)P(=O)(O)O)ccc3[nH]2)C1 [SI-109] |  | 124.2% | 110% | 128% | 142% | 134% | 120% | 130% | 117% | 154% | 223% | 140% | 153% | 
4 | CC(=O)N[C@@H](Cc1ccc(CP(=O)(O)O)cc1)C(=O)NC1(C(=O)N[C@@H](CC(N)=O)C(=O)NCCCc2c(O)ccc3ccccc23)CCCCC1 [CGP78850] | No Hit | 113.6±8.8% | 45.5 ± 1.4% | 0% | 111 ± 10.3% | 109 ± 5.7% | 0.4 ± 0.4% | 109 ± 14.6% | 99.2 ± 4.1% | 8.1 ± 6.6% | 77.3 ± 6.6% | 40% | 116 ± 4.4% | Kd (PIK3R1(SH2dom.C-term.)): 150 nM; Kd (HSH2D): 1.6 ± 0.35 µM
